The experiment has as its system barnyard grass seeds. The experiment is described as follows: Petri dish seed germination method: inhibition of root and stem growth of barnyard grass. Type of experiment: in vivo. To be noted: 96 hours incubation. The method, then: (§1) Step 2: Accurately weigh 1 mmol cis-p-menthane-1,8-di-Schiff base compounds and cis-p-menthane-1,8-di-secondary amine compounds respectively, dissolve each of them with 0.25 mL DMF, and add a drop of Tween 80 in each resulted solution. After being fully dissolved, each solution is transferred to a 100 mL volumetric flask respectively and then diluted to the mark with distilled water to obtain a solution with a concentration of 10 mmol/L as the mother liquor. The two-fold dilution method is used to prepare diluted solutions with a series of concentrations (the concentrations of DMF and Tween 80 in the diluted solutions are the same as those in the mother liquor).
(§2) Barnyard grass seeds are placed in a 28° C. incubator and are soaked in an appropriate amount of distilled water for 12 hours there. After the clean water is filtered out, the seeds are then placed in the 28° C. incubator for 24 hours to germinate. Spread 2 pieces of filter paper in each of several Petri dishes, and place 10 barnyard grass seeds with the same size in each dish. Repeat each treatment for three times The dishes are divided into two groups: test dishes and control dishes. Add into each test dish 10 mL of the sample solution with the corresponding concentration of the target compound, and add into each control dish the same amount of the mixture of water, DMF and Tween 80 as the blank control. Add 10 seeds to each of the dishes (both test dishes and control dishes), place them in an artificial climate incubator, and incubate them for 96 hours under a temperature of 28° C., an illumination of 5000 1×, a photoperiod of day:night=16:8 and a relative humidity of 70-80%. The experimental data is processed and analyzed with DPS software to calculate the inhibition rate (y) of cis-p-menthane-1,8-di-secondary amine compounds on the root growth or stem growth of barnyard grass seeds.
Wherein, y is the inhibition rate of root growth or stem growth (%), x0 is the root length or stem length of the control, and x1 is the root length or stem length of the sample.
as §1, with “Accurately” for “Step 2: Accurately”, “cis-p-menthane-1,8-bis-(4-chlorophenyl)Schiff” for “cis-p-menthane-1,8-di-Schiff”, “base” for “base compounds”, “cis-p-menthane-1,8-bis-(4-chlorobenzyl)amine” for “cis-p-menthane-1,8-di-secondary amine compounds”, “(5 mmol/L, 2.5 mmol/L, 1.25 mmol/L, 0.625 mmol/L, 0.3125 mmol/L and 0.1563 mmol/L; the” for “(the”
as §2, with “placed in a 30° C. incubator” for “placed in the 28° C. incubator”, “in each Petri dish,” for “in each of several Petri dishes,”, “each Petri dish, and place” for “several Petri dishes, and place”, “with the above corresponding concentration” for “with the corresponding concentration”, “with DPS software.” for “with DPS software to calculate the inhibition rate (y) of cis-p-menthane-1,8-di-secondary amine compounds on the root growth or stem growth of barnyard grass seeds.”

Molecules are shown by their SMILES.

Regarding `COc1ccc(C=NC2(C)CCC(C(C)(C)N=Cc3ccc(OC)cc3)CC2)cc1` (stereo not drawn) [cis-p-menthane-1,8-bis-(4-methoxybenzyl)Schiff base, reference compound], the “inhibition rate on the root growth of barnyard grass seeds” value (shortened to “inhibition rate on the root growth”) is, setting by setting: (0.3125 mmol/L) 70.7%; (0.625 mmol/L) 66.7%; (1.25 mmol/L) 55.3%; (2.5 mmol/L) 28.1%; (5 mmol/L) 7.6%. Moreover, the “inhibition rate on the stem growth of barnyard grass seeds” value (shortened to “inhibition rate on the stem growth”) came to 15.4% (0.3125 mmol/L); 6.9% (0.625 mmol/L); 4% (1.25 mmol/L); 8.0% (2.5 mmol/L); 2.1% (5 mmol/L).

For the compound `COc1ccc(CNC2(C)CCC(C(C)(C)NCc3ccc(OC)cc3)CC2)cc1` (stereo not drawn) [cis-p-menthane-1,8-bis-(4-methoxybenzyl)amine], the “inhibition rate on the root growth” value by setting is: (0.15625 mmol/L) 37.8%; (0.3125 mmol/L) 42.2%; (0.625 mmol/L) 88.7%; (1.25 mmol/L) 95.1%; (2.5 mmol/L) 96.5%; (5 mmol/L) 100.0%. The “inhibition rate on the stem growth” value (0.15625 mmol/L) is listed as 9.9%; the “inhibition rate on the stem growth” value (0.3125 mmol/L) is 27.9%; the “inhibition rate on the stem growth” value (0.625 mmol/L) turned out to be 72.5%; the “inhibition rate on the stem growth” value (1.25 mmol/L) was 70.6%; the “inhibition rate on the stem growth” value (2.5 mmol/L) is given as 84.4%; the “inhibition rate on the stem growth” value (5 mmol/L) came to 84.3%.

`Cc1ccc(CNC(C)(C)[C@H]2CC[C@@](C)(NCc3ccc(C)cc3)CC2)cc1` [cis-p-menthane-1,8-bis-(4-methylbenzyl)amine]: the “inhibition rate on the root growth” value is 42.5% (0.15625 mmol/L); 86.6% (0.3125 mmol/L); 89.6% (0.625 mmol/L); 91.9% (1.25 mmol/L); 95.2% (2.5 mmol/L); 100.0% (5 mmol/L). For the same compound, the “inhibition rate on the stem growth” value reads like this: (0.15625 mmol/L) 42.1%; (0.3125 mmol/L) 64.6%; (0.625 mmol/L) 65.9%; (1.25 mmol/L) 74.7%; (2.5 mmol/L) 87.1%; (5 mmol/L) 93.3%.

As for `CSc1ccc(CNC2(C)CCC(C(C)(C)NCc3ccc(SC)cc3)CC2)cc1` (stereo not drawn) [cis-p-menthane-1,8-bis-(4-methylthiobenzyl)amine], the “inhibition rate on the root growth” value was found to be 32.0% (0.15625 mmol/L); 58.1% (0.3125 mmol/L); 77.2% (0.625 mmol/L); 90.8% (1.25 mmol/L); 96.0% (2.5 mmol/L); 98.5% (5 mmol/L). The “inhibition rate on the stem growth” value reads like this: (0.15625 mmol/L) 22.8%; (0.3125 mmol/L) 66.0%; (0.625 mmol/L) 66.2%; (1.25 mmol/L) 83.4%; (2.5 mmol/L) 77.5%; (5 mmol/L) 85.1%.

Values taken from patent US20210161131A1, “cis-p-Menthane-1,8-Di-secondary Amine Compounds as well as Their Preparation Methods and Application in Weed Control” (RESEARCH INSTITUTE OF FORESTRY NEW TECHNOLOGY, CHINESE …, priority 2019, published 2021).
